Data: patent publication US6512000B1, “Aminocarbonyl-substituted benzimidazoles having tryptase-inhibitory activity” (Boehringer Ingelheim Pharma KG, priority 1999, dated 2003)
Counter-ions that a name gives are not always drawn.

Target: T1, rh beta tryptase (Homo sapiens, UniProt P20231)
T1 construct: purchased Promega
Assay: Tryptase inhibition test (cleavage of N-p-tosyl-Gly-Pro-Lys-para-nitroaniline, p-nitroaniline measured at 405 nm)
Type: biochemical
Settings: concentration at which 50% of the tryptase enzyme activity is inhibited; substrate 0.6 mM, pH 7.4, 37° C.
Method: The compounds according to the invention are characterised by their tryptase-inhibiting activity. This ability to inhibit tryptase was investigated using the test described below.
The measurement is carried out in Tris HCl buffer (100 mM), which additionally contains calcium (5 mM) and heparin ([…]), at pH 7.4. The standard used is rh beta tryptase which may be obtained commercially from Promega, for example. The substrate used is N-p-tosyl-Gly-Pro-Lys-para-nitroaniline in a concentration of 0.6 mM. The substrate is digested with tryptase to form p-nitroaniline which can be measured at 405 nm. Usually, an incubation period of 5 minutes and an incubation temperature of 37° C. are chosen. The enzyme activity used is 0.91 U/ml. The measurements are carried out in an Autoanalyser (Cobas Bio) made by Hofmann LaRoche. The potential inhibitory substances are used in concentrations of 10 μM in the screening, the inhibition of the tryptase being given in percent. The IC50 is determined at over 70% inhibition (concentration at which 50% of the enzyme activity is inhibited). After 5 minutes' pre-incubation of the potential inhibitory substances, the substrate is added to start the reaction, the formation of p-nitroaniline being taken as a measurement of the enzyme activity after 5 minutes, after testing the linearity.
The data obtained after the above test has been carried out (% inhibition) are assembled in Table 25 for the compounds according to the invention. The IC50 values obtained for the compounds according to the invention can be found in Table 26.
Table 26 contains the IC50 binding values obtained for the compounds according to the invention. These were measured as described above.

T1 sequence (P20231 31-275): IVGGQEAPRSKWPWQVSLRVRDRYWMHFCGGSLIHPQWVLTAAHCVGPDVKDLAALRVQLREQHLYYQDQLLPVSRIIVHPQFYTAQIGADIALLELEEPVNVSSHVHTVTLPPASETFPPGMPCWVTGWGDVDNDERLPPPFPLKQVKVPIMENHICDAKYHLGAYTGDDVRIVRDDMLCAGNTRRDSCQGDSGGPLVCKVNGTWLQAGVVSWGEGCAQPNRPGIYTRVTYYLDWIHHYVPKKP

Structure (SMILES) | IC50 [nM]
CN(Cc1ccc(N(C)C)cc1)C(=O)c1ccc2c(c1)nc(CCc1ccc(C(=N)N)cc1)n2C [Example 6, 2-[2-(4-Amidinophenyl)-ethyl]-1-methyl-benzimidazol-5-yl-carboxylic Acid-N-(4-dimethylaminobenzyl)-N-methyl-amide-hydrochloride] | 571
CN(CCC(=N)N)C(=O)c1ccc2c(c1)nc(CCc1ccc(C(=N)N)cc1)n2C [Example 7, 2-[2-(4-Amidinophenyl)-ethyl]-1-methyl-benzimidazol-5-yl-carboxylic Acid-N-(2-amidinoethyl)-N-methyl-amide-dihydrochloride] | 670
Cn1c(CCc2ccc(C(=N)N)cc2)nc2cc(C(=O)N(CCC(=N)N)Cc3cnc4ccccc4c3)ccc21 [Example 8, 2-[2-(4-Amidinophenyl)-ethyl]-1-methyl-benzimidazol-5-yl-carboxylic Acid-N-(2-amidinoethyl)-N-(quinolin-3-yl-methyl)-amide-dihydrochloride] | 201
Cn1c(CCc2ccc(C(=N)N)cc2)nc2cc(C(=O)N(CCC(=N)N)Cc3ccccc3)ccc21 [Example 9, 2-[2-(4-Amidinophenyl)-ethyl]-1-methyl-benzimidazol-5-yl-carboxylic Acid-N-(2-amidinoethyl)-N-benzyl-amide-dihydrochloride] | 140
Cn1c(CCc2ccc(C(=N)N)cc2)nc2cc(C(=O)N(CCC(=N)N)Cc3cccnc3)ccc21 [Example 10, 2-[2-(4-Amidinophenyl)-ethyl]-1-methyl-benzimidazol-5-yl-carboxylic Acid-N-(2-amidinoethyl)-N-(3-pyridylmethyl)-amide-dihydrochloride] | 316
CC(C)CN(CCC(=N)N)C(=O)c1ccc2c(c1)nc(CCc1ccc(C(=N)N)cc1)n2C [Example 11, 2-[2-(4-Amidinophenyl)-ethyl]-1-methyl-benzimidazol-5-yl-carboxylic Acid-N-(2-amidinoethyl)-N-iso-butyl-amide-dihydrochloride] | 86
Cn1c(CCc2ccc(C(=N)N)cc2)nc2cc(C(=O)NCCCc3ccccc3)ccc21 [Example 12, 2-[2-(4-Amidinophenyl)-ethyl]-1-methyl-benzimidazol-5-yl-carboxylic Acid-N-(3-phenylpropyl)-amide-hydrochloride] | 479
Cc1ccccc1N1CCCN(C(=O)c2ccc3c(c2)nc(CCc2ccc(C(=N)N)cc2)n3C)CC1 [Example 15, 2-[2-(4-Amidinophenyl)-ethyl]-1-methyl-benzimidazol-5-yl-carboxylic Acid-[N′-(2-methyl-phenyl)-diazepide]-hydrochloride] | 98
Cn1c(CCc2ccc(C(=N)N)cc2)nc2cc(C(=O)N(CCCc3ccccc3)Cc3ccc(C(=N)N)cc3)ccc21 [Example 16, 2-[2-(4-Amidinophenyl)-ethyl]-1-methyl-benzimidazol-5-yl-carboxylic Acid-N-(4-amidinobenzyl)-N-(3-phenylpropyl)-amide-dihydrochloride] | 154
Cn1c(CCc2ccc(C(=N)N)cc2)nc2cc(C(=O)N(CCC(c3ccccc3)c3ccccc3)Cc3ccc(C(=N)N)cc3)ccc21 [Example 17, 2-[2-(4-Amidinophenyl)-ethyl]-1-methyl-benzimidazol-5-yl-carboxylic Acid-N-(4-amidinobenzyl)-N-(3,3-diphenylpropyl)-amide-dihydrochloride] | 107
CN(C(=O)c1ccc2c(c1)nc(CCc1ccc(C(=N)N)cc1)n2C)c1cccnc1 [Example 18, 2-[2-(4-Amidinophenyl)-ethyl]-1-methyl-benzimidazol-5-yl-carboxylic Acid-N-methyl-N-(3-pyridyl)-amide-hydrochloride] | 312
Cn1c(CCc2ccc(C(=N)N)cc2)nc2cc(C(=O)N(CCN(Cc3ccccc3)Cc3ccccc3)c3ccccc3)ccc21 [Example 19] | 32
Cn1c(CCc2ccc(C(=N)N)cc2)nc2cc(C(=O)N(CCC(=N)N)c3ccc4ccccc4c3)ccc21 [Example 20, 2-[2-(4-Amidinophenyl)-ethyl]-1-methyl-benzimidazol-5-yl-carboxylic Acid-N-(2-amidinoethyl)-N-(2-naphthyl)-amide-dihydrochloride] | 310
Cn1c(CCc2ccc(C(=N)N)cc2)nc2cc(C(=O)N(CCC(=N)N)c3ccccc3)ccc21 [Example 21, 2-[2-(4-Amidinophenyl)-ethyl]-1-methyl-benzimidazol-5-yl-carboxylic Acid-N-(2-amidinoethyl)-N-phenyl-amide-dihydrochloride] | 51
CCc1cccc(N(CCC(=N)N)C(=O)c2ccc3c(c2)nc(CCc2ccc(C(=N)N)cc2)n3C)c1 [Example 22, 2-[2-(4-Amidinophenyl)-ethyl]-1-methyl-benzimidazol-5-yl-carboxylic Acid-N-(2-amidinoethyl)-N-(3-ethyl-phenyl)-amide-dihydrochloride] | 56
Cn1c(CCc2ccc(C(=N)N)cc2)nc2cc(C(=O)N(CCC(=N)N)c3cccc(Oc4ccccc4)c3)ccc21 [Example 23, 2-[2-(4-Amidinophenyl)-ethyl]-1-methyl-benzimidazol-5-yl-carboxylic Acid-N-(2-amidinoethyl)-N-(3-phenoxy-phenyl)-amide-dihydrochloride] | 49
Cn1c(CCc2ccc(C(=N)N)cc2)nc2cc(C(=O)N(CCC(=N)N)CCc3ccccc3)ccc21 [Example 24, 2-[2-(4-Amidinophenyl)-ethyl]-1-methyl-benzimidazol-5-yl-carboxylic Acid-N-(2-amidinoethyl)-N-(2-phenylethyl)-amide-dihydrochloride] | 16
Cn1c(CCc2ccc(C(=N)N)cc2)nc2cc(C(=O)N(CCC(=N)N)C3CCCCCCC3)ccc21 [Example 25, 2-[2-(4-Amidinophenyl)-ethyl]-1-methyl-benzimidazol-5-yl-carboxylic Acid-N-(2-amidinoethyl)-N-cyclooctyl-amide-dihydrochloride] | 55
Cc1ccc(N(CCC(=N)N)C(=O)c2ccc3c(c2)nc(CCc2ccc(C(=N)N)cc2)n3C)cc1 [Example 26, 2-[2-(4-Amidinophenyl)-ethyl]-1-methyl-benzimidazol-5-yl-carboxylic Acid-N-(2-amidinoethyl)-N-(4-methyl-phenyl)-amide-dihydrochloride] | 168
CC(C)N(CCC(=N)N)C(=O)c1ccc2c(c1)nc(CCc1ccc(C(=N)N)cc1)n2C [Example 27, 2-[2-(4-Amidinophenyl)-ethyl]-1-methyl-benzimidazol-5-yl-carboxylic Acid-N-(2-amidinoethyl)-N-iso-propyl-amide-dihydrochloride] | 153
CCOC(=O)C(Cc1ccc(C(=N)N)cc1)N(C)C(=O)c1ccc2c(c1)nc(CCc1ccc(C(=N)N)cc1)n2C (stereo not shown) [Example 29, Ethyl 2-{2-[2-(4-Amidinophenyl)-ethyl]-1-methyl-benzimidazol-5-yl-carbonyl-(methylamino)}-3-(4-amidinophenyl)-propionate-formate] | 158
Cn1c(CCc2ccc(C(=N)N)cc2)nc2cc(C(=O)N(CCNCc3ccccc3)C3CCCCC3)ccc21 [Example 36, 2-[2-(4-Amidinophenyl)-ethyl]-1-methyl-benzimidazol-5-yl-carboxylic Acid-[N-(2-(N′-benzylamino)-ethyl)-N-cyclohexyl-amide]-dihydrochloride] | 67
